Where a SMILES comes first, the peptide text is derived from it. [ ]: non-standard residue; d: D form. The star is where a group is joined. Sta = CC(C)C[C@H](N)[C@@H](O)CC(=O)O; Isovaleryl = CC(C)CC(=O)*
Target: T1, PvNod41 (nodulin 41) (Phaseolus vulgaris, UniProt G1FTR5)
T1 construct: gene Nod41; native mature enzyme purified from 21 dpi root nodules; 437-residue precursor, 22-residue putative signal peptide and 50-residue prosegment removed; single chain, 41 kDa on SDS-PAGE
T1 sequence (G1FTR5 73-437): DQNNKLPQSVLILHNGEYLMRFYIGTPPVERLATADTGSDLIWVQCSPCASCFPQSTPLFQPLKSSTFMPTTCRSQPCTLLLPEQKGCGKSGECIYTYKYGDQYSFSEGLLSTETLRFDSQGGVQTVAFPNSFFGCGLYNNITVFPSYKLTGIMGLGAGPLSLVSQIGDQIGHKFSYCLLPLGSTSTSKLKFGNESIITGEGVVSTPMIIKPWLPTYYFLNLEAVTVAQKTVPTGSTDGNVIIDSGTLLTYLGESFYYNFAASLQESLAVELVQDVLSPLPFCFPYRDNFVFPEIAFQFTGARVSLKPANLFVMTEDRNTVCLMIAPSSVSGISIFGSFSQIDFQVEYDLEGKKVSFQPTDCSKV
Test: casein degradation, SDS-PAGE densitometry
Format: biochemical
Settings: 2 µM, casein substrate, 50 mM sodium citrate, pH 4.5, 37°C, 15 min preincubation
Text: casein degradation, SDS-PAGE densitometry on PvNod41 (nodulin 41)

% of residual activity (n = 3): 55 (± 5) %
SMILES: CC(C)CC(=O)N[C@H](C(=O)N[C@H](C(=O)N[C@@H](CC(C)C)[C@@H](O)CC(=O)N[C@@H](C)C(=O)N[C@@H](CC(C)C)[C@@H](O)CC(=O)O)C(C)C)C(C)C [Pepstatin A] (Isovaleryl-VV[Sta]A[Sta]-OH)

— paper PMC3207901, “Nodulin 41, a novel late nodulin of common bean with peptidase activity” (BMC Plant Biology, 2011)
